Source: ChEMBL document CHEMBL1201862, “PubChem BioAssay data set” (2004)
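All cell lines were grown in 96-well plates and treated with compound for 48 hours. GI50: concentration for 50% inhibition of growth.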 Activity calls are given as the source filed them. Rule as the data show it: active = GI50 up to about 1.1 µM and inactive = higher.

Experiments:
Test in all cases: NCI tumour cell line growth inhibition, 48 h
U-251 = system: U-251
BT-549 = system: BT-549
DU-145 = system: DU-145
TK-10 = system: TK-10
K562 = system: K562
NCI-H23 = system: NCI-H23
SK-MEL-28 = system: SK-MEL-28
SW-620 = system: SW-620
NCI-H522 = system: NCI-H522
COLO 205 = system: COLO 205
NCI-H226 = system: NCI-H226
MDA-N = system: MDA-N
HT-29 = system: HT-29
CCRF-CEM = system: CCRF-CEM
EKVX = system: EKVX
KM12 = system: KM12
OVCAR-3 = system: OVCAR-3
MOLT-4 = system: MOLT-4
SF-268 = system: SF-268
SK-MEL-5 = system: SK-MEL-5
PC-3 = system: PC-3
SNB-75 = system: SNB-75
ACHN = system: ACHN
OVCAR-5 = system: OVCAR-5
OVCAR-8 = system: OVCAR-8
M14 = system: M14
HCT-15 = system: HCT-15
T47D = system: T47D
HOP-62 = system: HOP-62
LOX IMVI = system: LOX IMVI
NCI/ADR-RES = system: NCI/ADR-RES
UACC-257 = system: UACC-257
MCF7 = system: MCF7
A549 = system: A549
RPMI-8226 = system: RPMI-8226
UO-31 = system: UO-31
NCI-H460 = system: NCI-H460
A498 = system: A498
SN12C = system: SN12C
HCT-116 = system: HCT-116
HOP-92 = system: HOP-92
CAKI-1 = system: CAKI-1
MDA-MB-231 = system: MDA-MB-231
OVCAR-4 = system: OVCAR-4
SK-MEL-2 = system: SK-MEL-2
SK-OV-3 = system: SK-OV-3
HL-60 = system: HL-60
MDA-MB-435 = system: MDA-MB-435
HCC 2998 = system: HCC 2998
SNB-19 = system: SNB-19
SF-295 = system: SF-295
786-0 = system: 786-0
Hs-578T = system: Hs-578T
UACC-62 = system: UACC-62
IGROV-1 = system: IGROV-1
Malme-3M = system: Malme-3M
SF-539 = system: SF-539
SR = system: SR
RXF 393 = system: RXF 393

Measured: GI50

O=C(/C=C\c1ccc([N+](=O)[O-])cc1)c1ccccc(=O)c1O
0.169 µM: HCT-15
inactive: BT-549 1.72 µM | DU-145 2.11 µM | TK-10 2.49 µM | NCI-H23 2.33 µM | SK-MEL-28 1.41 µM | SW-620 1.3 µM | NCI-H522 1.39 µM | NCI-H226 1.65 µM | MDA-N 2.37 µM | EKVX 1.81 µM | OVCAR-3 2.49 µM | PC-3 1.95 µM | SNB-75 1.29 µM | OVCAR-5 2.55 µM | M14 1.29 µM | T47D 2.67 µM | HOP-62 1.88 µM | UACC-257 1.77 µM | A498 2.84 µM | SN12C 4.81 µM | CAKI-1 1.32 µM | MDA-MB-231 3.37 µM | OVCAR-4 2.47 µM | SK-MEL-2 1.89 µM | SK-OV-3 4.3 µM | HCC 2998 1.29 µM | SNB-19 4.65 µM | SF-295 1.42 µM | Hs-578T 3.88 µM | UACC-62 1.14 µM | IGROV-1 1.14 µM
active: U-251 1.01 µM | K562 0.92 µM | COLO 205 0.397 µM | HT-29 1.04 µM | CCRF-CEM < 0.0319 µM | KM12 1.04 µM | MOLT-4 0.721 µM | SF-268 0.977 µM | SK-MEL-5 0.558 µM | ACHN 1.01 µM | OVCAR-8 0.9 µM | LOX IMVI 0.449 µM | NCI/ADR-RES 0.429 µM | MCF7 0.277 µM | A549 0.51 µM | RPMI-8226 0.682 µM | UO-31 1.02 µM | NCI-H460 0.518 µM | HCT-116 0.659 µM | HOP-92 0.256 µM | HL-60 0.538 µM | MDA-MB-435 0.989 µM | 786-0 0.769 µM | Malme-3M 0.873 µM

COc1cccc(CCn2c(N)c(-c3ccccc3)c3ccc([N+](=O)[O-])cc3c2=O)c1
active: K562 1.02 µM | RPMI-8226 0.499 µM | SN12C 0.664 µM
inactive: U-251 9.29 µM | BT-549 1.61 µM | DU-145 13.7 µM | TK-10 2.07 µM | NCI-H23 3.16 µM | SK-MEL-28 17.5 µM | SW-620 25.7 µM | NCI-H522 2.93 µM | COLO 205 2.16 µM | NCI-H226 3.05 µM | MDA-N 17.5 µM | HT-29 10.6 µM | SF-539 2.51 µM | CCRF-CEM 11.4 µM | EKVX 12.3 µM | KM12 4.36 µM | OVCAR-3 2.58 µM | MOLT-4 6.7 µM | SF-268 16.2 µM | SK-MEL-5 5.93 µM | PC-3 9.53 µM | SR 6.61 µM | SNB-75 2.99 µM | ACHN 5.25 µM | OVCAR-5 14.3 µM | OVCAR-8 1.98 µM | M14 11.2 µM | T47D 2.05 µM | HOP-62 6.56 µM | LOX IMVI 2.43 µM | NCI/ADR-RES 1.9 µM | UACC-257 17.3 µM | MCF7 3.46 µM | A549 9.62 µM | UO-31 9.02 µM | NCI-H460 13.6 µM | A498 1.82 µM | HCT-116 3.3 µM | HOP-92 10.3 µM | CAKI-1 6.3 µM | MDA-MB-231 8.45 µM | OVCAR-4 1.79 µM | SK-MEL-2 16.7 µM | SK-OV-3 5.07 µM | HL-60 5.47 µM | MDA-MB-435 21.9 µM | HCC 2998 11.1 µM | SNB-19 16 µM | SF-295 3.78 µM | 786-0 6.25 µM | Hs-578T 1.85 µM | UACC-62 11.9 µM | IGROV-1 5.6 µM | Malme-3M 14.2 µM
7.08 µM: HCT-15

CN(C)CCOc1ccc(I)cc1Cc1ccccc1
inactive: U-251 12.4 µM | RXF 393 15 µM | BT-549 14 µM | DU-145 17.1 µM | TK-10 12.7 µM | K562 3.39 µM | NCI-H23 4.05 µM | SK-MEL-28 4.74 µM | SW-620 14.2 µM | NCI-H522 11.9 µM | COLO 205 11.9 µM | NCI-H226 15.9 µM | MDA-N 5.31 µM | HT-29 4.36 µM | SF-539 13.8 µM | CCRF-CEM 4.85 µM | EKVX 14.5 µM | KM12 13.7 µM | OVCAR-3 13.2 µM | MOLT-4 5.21 µM | SF-268 13.2 µM | SK-MEL-5 3.61 µM | PC-3 8.28 µM | SR 2.65 µM | SNB-75 1.52 µM | ACHN 12.2 µM | OVCAR-5 14.7 µM | OVCAR-8 16 µM | M14 2.66 µM | T47D 3.81 µM | HOP-62 13.9 µM | LOX IMVI 5.2 µM | NCI/ADR-RES 13.8 µM | UACC-257 15.2 µM | MCF7 13 µM | A549 15.5 µM | RPMI-8226 6.34 µM | UO-31 7.69 µM | NCI-H460 11.9 µM | A498 13.9 µM | SN12C 12.1 µM | HCT-116 10.6 µM | MDA-MB-231 3.89 µM | OVCAR-4 11.8 µM | SK-MEL-2 15 µM | SK-OV-3 18.6 µM | HL-60 4.74 µM | MDA-MB-435 4.27 µM | HCC 2998 3.29 µM | SNB-19 13.7 µM | SF-295 15.4 µM | 786-0 10.7 µM | Hs-578T 11.1 µM | UACC-62 3.28 µM | IGROV-1 4.6 µM | Malme-3M 15.9 µM
12.2 µM: HCT-15

CN(C)CCNC(=O)c1cccc(N(C)C(=O)c2ccccc2)c1[N+](=O)[O-]
> 100 µM: HCT-15
inactive: U-251 > 100 µM | BT-549 > 100 µM | DU-145 > 100 µM | TK-10 > 100 µM | K562 > 100 µM | NCI-H23 > 100 µM | SK-MEL-28 > 100 µM | SW-620 > 100 µM | NCI-H522 > 100 µM | COLO 205 > 10 µM | NCI-H226 > 100 µM | MDA-N > 100 µM | HT-29 > 100 µM | SF-539 > 100 µM | CCRF-CEM > 100 µM | KM12 > 100 µM | OVCAR-3 > 100 µM | MOLT-4 > 100 µM | SF-268 > 100 µM | SK-MEL-5 > 100 µM | PC-3 > 100 µM | SR > 100 µM | SNB-75 53.6 µM | ACHN > 100 µM | OVCAR-5 > 100 µM | OVCAR-8 > 100 µM | M14 > 100 µM | T47D > 100 µM | HOP-62 > 100 µM | NCI/ADR-RES > 100 µM | UACC-257 > 10 µM | MCF7 > 100 µM | A549 > 100 µM | UO-31 > 100 µM | NCI-H460 > 100 µM | A498 > 100 µM | SN12C > 10 µM | HCT-116 > 100 µM | CAKI-1 > 100 µM | MDA-MB-231 > 100 µM | SK-MEL-2 > 100 µM | SK-OV-3 > 100 µM | HL-60 > 100 µM | MDA-MB-435 > 100 µM | HCC 2998 > 100 µM | SNB-19 > 100 µM | SF-295 > 100 µM | 786-0 > 100 µM | Hs-578T > 100 µM | UACC-62 > 100 µM | IGROV-1 > 100 µM | Malme-3M > 100 µM

N#Cc1ccc(OCc2nc3cc(C(F)(F)F)ccc3nc2-c2ccccc2)cc1
> 10 µM: HCT-15
inactive: U-251 > 100 µM | BT-549 > 100 µM | DU-145 > 100 µM | TK-10 > 100 µM | NCI-H23 > 100 µM | SK-MEL-28 > 100 µM | SW-620 > 100 µM | NCI-H522 7.62 µM | COLO 205 > 100 µM | MDA-N > 100 µM | HT-29 7.93 µM | SF-539 > 100 µM | CCRF-CEM 57.7 µM | EKVX 41.2 µM | KM12 > 100 µM | OVCAR-3 > 100 µM | MOLT-4 62.1 µM | SF-268 > 100 µM | SK-MEL-5 > 100 µM | PC-3 > 100 µM | SR 70.5 µM | SNB-75 > 100 µM | ACHN > 100 µM | OVCAR-5 > 100 µM | OVCAR-8 > 100 µM | M14 > 100 µM | T47D > 100 µM | HOP-62 > 100 µM | LOX IMVI > 100 µM | NCI/ADR-RES > 100 µM | UACC-257 > 100 µM | MCF7 > 100 µM | A549 > 100 µM | RPMI-8226 > 100 µM | UO-31 > 100 µM | NCI-H460 > 100 µM | A498 > 100 µM | SN12C > 100 µM | HCT-116 > 100 µM | HOP-92 > 100 µM | CAKI-1 > 100 µM | MDA-MB-231 51.1 µM | OVCAR-4 > 100 µM | SK-MEL-2 > 100 µM | HL-60 3.53 µM | MDA-MB-435 > 100 µM | HCC 2998 > 100 µM | SNB-19 > 100 µM | SF-295 > 100 µM | 786-0 > 100 µM | Hs-578T > 100 µM | UACC-62 > 100 µM | IGROV-1 > 100 µM | Malme-3M > 100 µM
